Each block holds one molecule with its values, some of them ahead of it.
Tests used:
[1] = Average particle size of the nanoparticles in the pharmaceutical composition; assay type: physicochemical; conditions: 1 ml ethanol solution into ≈35 ml
From the text: (§1) This could be exemplified with respect to pharmaceutical compositions of two poorly water-soluble anticancer drugs or compounds, viz.

[2] = Clarity of the solution of the nanoparticulate composition; assay type: physicochemical
From the text: as §1

[3] = Stability: hours the drug remains in solution without precipitation
From the text: By reference to the term “stability”, it is to be construed to mean the period, counted in hours, wherein the poorly water-soluble drug or compound remains in solution in the pharmaceutical composition comprising the same, without any precipitation of the drug or compound from therein.

[4] = 1 ml ethanol solution into ≈35 ml, needle 0.305 mm, addition 3 Secs
[5] = 1 ml ethanol solution into ≈35 ml, needle 1.270 mm, addition 2 Secs
[6] = 1 ml ethanol solution into ≈35 ml, needle 1.270 mm, addition 6 Secs
[7] = 15 ml ethanol solution into ≈500 ml, needle 0.330 mm, addition 18 Secs
[8] = 15 ml ethanol solution into ≈500 ml, needle 0.711 mm, addition 10 Secs

Structure (SMILES): C=C(C)[C@@H]1CC[C@]2(C(=O)O)CC[C@]3(C)C(CCC4[C@@]5(C)Cc6c([nH]c7ccc(Cl)cc67)C(C)(C)C5CC[C@]43C)C12 (stereo partly drawn) [DRF-4012]
- Average Particle Size (nm) ([1]; needle 0.305 mm, addition 6 Secs): 200 nm
- Average Particle Size (nm) ([1]; needle 0.465 mm, addition 2 Secs): 90 nm
- Average Particle Size (nm) ([1]; needle 0.467 mm, addition 6 Secs): 200 nm
- Average Particle Size (nm) ([1]; needle 0.711 mm, addition 2 Secs): 100 nm
- Average Particle Size (nm) ([1]; needle 0.711 mm, addition 6 Secs): 240 nm
- Average Particle Size (nm) ([1]; needle 1.270 mm, addition 2 Secs): 130 nm
- Average Particle Size (nm) ([1]; needle 1.270 mm, addition 6 Secs): 8100 nm
- Average Particle Size (nm) ([1]; nanoparticles with the polymer, needle 0.305 mm, addition 3 Secs): 70 nm
- Clarity Of The Solution [2, 4]: Clear
- Clarity Of The Solution [2, 5]: Opalescent
- Clarity Of The Solution [2, 6]: Milky

- Clarity Of The Solution [2, 4]: Clear
- Clarity Of The Solution [2, 5]: Opalescent
- Clarity Of The Solution [2, 6]: Milky
- Clarity Of The Solution [2, 7]: Clear
- Clarity Of The Solution [2, 8]: Clear
- Stability [3, 4]: >24 h
- Stability ([3]; 1 ml ethanol solution into ≈35 ml, needle 0.305 mm, addition 6 Secs): <4 h
- Stability ([3]; 1 ml ethanol solution into ≈35 ml, needle 0.467 mm, addition 2 Secs): 20 h
- Stability ([3]; 1 ml ethanol solution into ≈35 ml, needle 0.467 mm, addition 6 Secs): <2 h
- Stability ([3]; 1 ml ethanol solution into ≈35 ml, needle 0.711 mm, addition 2 Secs): <10 h
- Stability ([3]; 1 ml ethanol solution into ≈35 ml, needle 0.711 mm, addition 6 Secs): <2 h
- Stability [3, 5]: <4 h
- Stability [3, 6]: <0.5 h
- Stability [3, 7]: 20 h
- Stability [3, 8]: >24 h
- Stability ([3]; 15 ml ethanol solution into ≈500 ml, needle 0.711 mm, addition 15 Secs): <15 h
Structure (SMILES): CC(=O)O[C@H]1C(=O)[C@@]2(C)[C@H]([C@H](OC(=O)c3ccccc3)[C@]3(O)C[C@H](OC(=O)[C@H](O)[C@@H](NC(=O)c4ccccc4)c4ccccc4)C(C)=C1C3(C)C)[C@]1(OC(C)=O)CO[C@@H]1C[C@@H]2O [Paclitaxel]

Source: patent publication US8927023B2, “Biocompatible, non-biodegradable, non-toxic polymer useful for nanoparticle pharmaceutical compositions” (Fresenius Kabi Oncology Limited, priority 2005, dated 2015)
